Patent US8865728B2, “Combinations comprising methotrexate and DHODH inhibitors” (Almirall, S.A., priority 2008, dated 2014)
Entries after “also recorded” stand apart in the source; their conditions may differ.

Key:
[1] = system: rat adjuvant-induced arthritis model (AIA); test: Efficacy in rat adjuvant-induced arthritis model (AIA), curative protocol; assay type: in vivo, Wistar rats; details: arthritic rats, oral once a day, MTX 0.05 mg/Kg/day, AUC of right paw volumes days 10-21 vs vehicle; for % AUC inhibition right paw: Teriflunomide 3 mg/Kg/day, one experiment with 6 animals
Method: The effect of DHODH inhibitor compounds were tested in combination with methotrexate (0.05 mg/Kg/day) in the rat adjuvant-induced arthritis model (AIA) in animals with established disease (curative protocol). Briefly, Complete Freund Adjuvant (CFA) was injected into the left hind footpad of Wistar rats, and 10 days later the swelling of the two rear paws was measured with a plethysmometer. […] Compounds were administered orally once a day for 10 days and paw volumes were determined every two days up to day 21.

[2] = Acute hepatotoxicity assay in Swiss mice (plasma liver markers); assay type: in vivo; details: for ALT plasma level / AST plasma level / BIL (total bilirubin) plasma level: Swiss mice, single 100 mg/kg intraperitoneal, 24 h after administration
Method: Acute hepatotoxicity assays were performed in Swiss mice. Animals received a single administration of either vehicle, or 100 mg/kg of teriflunomide or a compound of the present invention (compounds from the list indicated previously) by intraperitoneal route. Twenty-four hours later, animals were sacrificed and the levels of liver markers AST(aspartate aminotransferase), ALT(alanine aminotransferase) and BIL(total bilirubin) in plasma were determined.

human DHODH = human DHODH (Homo sapiens, UniProt Q02127); test: Inhibition of human DHODH activity assay (DCIP chromogen reduction); assay type: biochemical; details: chromogen reduction assay with DCIP, human enzyme extract; read-out: hDHODH IC50
human DHODH, sequence (Q02127 whole entry): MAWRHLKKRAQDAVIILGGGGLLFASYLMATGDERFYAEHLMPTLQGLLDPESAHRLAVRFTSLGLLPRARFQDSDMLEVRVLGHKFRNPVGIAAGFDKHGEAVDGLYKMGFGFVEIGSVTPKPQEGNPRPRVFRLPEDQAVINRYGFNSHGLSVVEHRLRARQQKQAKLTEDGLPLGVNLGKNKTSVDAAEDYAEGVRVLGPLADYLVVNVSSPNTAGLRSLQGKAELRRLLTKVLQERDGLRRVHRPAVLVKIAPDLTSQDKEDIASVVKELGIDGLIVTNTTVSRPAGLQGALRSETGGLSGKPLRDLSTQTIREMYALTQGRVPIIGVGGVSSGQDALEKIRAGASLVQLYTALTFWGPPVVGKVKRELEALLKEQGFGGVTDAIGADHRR
Method: DHODH activity and its inhibition were studied using a chromogen reduction assay with DCIP (2,6-dichlorophenol-indophenol).
Enzyme extracts (8 μl, ˜1.5 μg of human protein) were incubated in 96-well plates. The assay mixture (200 μl) contained 200 μM CoQD, 100 μM L-DHO, 120 μM DCIP in the assay buffer (100 mM HEPES pH 8.0, 150 mM NaCl, 10% Glicerol, 0.05% Triton X-100) and 2 μl of test compound.
The reaction was initiated by adding the enzyme and then incubated for 10 min at room temperature before measuring DCIP reduction by counting a decrease in absorbance at 600 nm using standard instrumentation (Spectramax).
All reactions were carried out in duplicate and graphs, determining IC50 values for each compound, were plotted using the ABase software.

| Compound | % AUC inhibition right paw [1] [%] | % inhibition of the inflammation (AUC) Right paw ([1]; compound A 3 mg/Kg/day, mean of two independent experiments) [%] | ALT plasma level [2] [IU/l] | AST plasma level [2] [IU/l] | BIL (total bilirubin) plasma level [2] [mg/dL] | change in plasma liver markers (ALT, AST, BIL) compared to vehicle-treated mice ([2]; mice, intraperitoneal route, 100 mg/kg) | IC50 (human DHODH) [µM] |
| --- | --- | --- | --- | --- | --- | --- | --- |
| CN(Cc1cnc2nc(N)nc(N)c2n1)c1ccc(C(=O)N[C@@H](CCC(=O)O)C(=O)O)cc1 [MTX, Methotrexate] | 24 | 37 |  |  |  |  |  |
| CCOc1cccc(-c2ccc(Nc3ncccc3C(=O)O)c(F)c2)c1 [Compound 2, 2-(3′-Ethoxy-3-fluorobiphenyl-4-ylamino)nicotinic acid] |  |  | 35 | 57 | 0 |  |  |
| C/C(O)=C(\C#N)C(=O)Nc1ccc(C(F)(F)F)cc1 [Teriflunomide, reference compound] | 56 |  | 423 | 542 | 0.5 | dramatic increase in the three liver markers; also recorded: drastic increase in the levels of transaminases and bilirrubin in plasma |  |
| COc1cccc(-c2ccc(Nc3cnccc3C(=O)[O-])c(OC(F)(F)F)c2)c1.[Li+] [Compound 23, Lithium 3-(3′-methoxy-3-(trifluoromethoxy)biphenyl-4-ylamino)isonicotinate] |  |  | 35 | 72 | 0 |  |  |
| CCOc1cccc(-c2ccc(Nc3ncccc3C(=O)O)c(OC(F)(F)F)c2)c1 [Compound 4, 2-(3′-Ethoxy-3-(trifluoromethoxy)biphenyl-4-ylamino)nicotinic acid] |  |  | 70 | 108 | 0.05 |  |  |
| Cc1c(-c2ccccc2)cc(F)c(Nc2ncccc2C(=O)O)c1F [Compound 48, 2-(3,5-difluoro-2-methylbiphenyl-4-ylamino)nicotinic acid] |  |  | 44 | 95 | 0.08 |  |  |
| COc1cccc(-c2cc(F)c(Nc3ncccc3C(=O)O)c(F)c2)c1 [Compound 20, 2-(3,5-Difluoro-3′-methoxybiphenyl-4-ylamino)nicotinic acid] |  |  | 73 | 95 | 0 |  |  |
| CCOc1cccc(-c2cc(F)c(Nc3ncccc3C(=O)O)c(F)c2)c1 [Compound 19, 2-(3′-Ethoxy-3,5-difluorobiphenyl-4-ylamino)nicotinic acid] |  |  | 60 | 92 | 0.05 |  |  |
| Cc1c(-c2ccccc2Cl)cc(F)c(Nc2ncccc2C(=O)O)c1F [Compound 57, 2-(2′-chloro-3,5-difluoro-2-methylbiphenyl-4-ylamino)nicotinic acid] |  |  | 60 | 109 | 0.06 |  |  |
| COc1cccc(-c2cc(F)c(Nc3ncc(C)cc3C(=O)O)c(F)c2)c1 [Compound 35, 2-(3,5-Difluoro-3′-methoxybiphenyl-4-ylamino)-5-methylnicotinic acid] |  |  |  |  |  |  | 0.012 |
| COc1cccc(-c2ccc(Nc3ncccc3C(=O)O)c(F)c2)c1 [Compound 1, 2-(3-Fluoro-3′-methoxybiphenyl-4-ylamino)nicotinic acid] |  |  | 99 | 84 | 0.03 |  |  |
| O=C(O)c1cccnc1Nc1ccc(-c2cccc(OC(F)(F)F)c2)cc1F [Compound 3, 2-(3-Fluoro-3′-(trifluoromethoxy)biphenyl-4-ylamino)nicotinic acid] |  |  | 52 | 83 | 0.01 |  |  |
| O=C(O)c1cccnc1Nc1c(F)cc(-c2cccc(OC3CC3)c2)cc1F [Compound 47, 2-(3′-cyclopropoxy-3,5-difluorobiphenyl-4-ylamino)nicotinic acid] |  |  | 66 | 91 | 0.14 |  |  |
